From US8268962B2, “Molecules for targeting compounds to various selected organs or tissues” (Prosensa Technologies B.V., priority 2007, dated 2012)
Where no end group is shown, it is not given here.

Experiments:
[1] = test system: gastrocnemius (calf muscle) of mdx mice; settings: intramuscular, 2.5-5 nmol, cross-sections after three days
Procedure: FAM-labeled peptides QLFTSAS (SEQ ID NO.: 3) (5 nmol injected), LYQDYSL (SEQ ID NO.: 85) (2.5 nmol injected) and LGAQSNF (SEQ ID NO.: 100) (2.5 nmol injected) were analysed. After three days the mice were sacrificed and the muscles were snap frozen. Cross-sections were cut, fixed with acetone and mounted for analysis with a fluorescence microscope. Cross-sections were cut and photographed with a fluorescence microscope (CCD camera).

[2] = test system: gastrocnemius muscle of a healthy mouse; settings: intramuscular, 5 nmol, after 3 days
Procedure: Uptake of the FAM-labeled peptides QLFTSAS (SEQ ID NO.: 3) and LGAQSNF (SEQ ID NO.: 100) was also tested on the muscle of a healthy mouse. Of each peptide 5 nmol was injected into the gastrocnemius muscle. After 3 days the mice were sacrified and the amount of staining was assessed. Samples were photographed with an inverted fluorescence microscope.

[3] = test system: myotubes obtained from human KM109 myoblast cultures; test: Uptake of FAM-labeled peptides and conjugate into cultured myotubes (fluorescence microscopy); type: cell-based; settings: tested on human and mouse myotubes, no fixation
Procedure: Two of the peptides that occurred frequently after selection on both mouse and human myotubes, SPNSIGT and QLFTSAS, were synthesized with a fluorescent label (FAM) and tested for uptake into human and mouse differentiated muscle cells (myotubes). Myotubes were obtained from confluent human KM109 myoblast cultures by 7-14 days of serum deprivation. The culture was subsequently incubated with FAM-labeled peptide and photographed with an inverted fluorescence microscope, without previous fixation.
Peptide QLFTSAS was synthesized with a fluorescent label (FAM) and subsequently conjugated to a 21-mer 2′O-methyl phosphorothioate anti-sense oligonucleotide (AON). Myotubes were obtained from confluent human KM109 myoblast cultures by 7-14 days of serum deprivation. The culture was subsequently incubated with the FAM-labeled conjugate and photographed with an inverted fluorescence microscope, without previous fixation.
Three of the peptides that were found after four rounds of in vivo selection, were synthesized with a fluorescent label (FAM) and tested in cell culture for uptake on human myotubes as described in Example 1.

[4] = test system: mdx mouse; test: In vivo targeting after subcutaneous injection of Cy5-labeled peptide (fluorescence imaging); settings: 71 nmol subcutaneously on the back, 48 hours
Procedure: Peptide LGAQSNF was synthesized with the fluorescent label Cy5. This label can be detected with a high sensitivity by a fluorescence imaging system (NightOWL, Berthold Technologies) after systemic (intravenous or subcutaneous) injection into a mouse. This enables monitoring of the distribution across the different organs of a living mouse after injection of the compound. Of this peptide, 71 nmol was injected subcutaneously on the back of an mdx mouse and after 48 hours a picture was taken with the imaging system.
The mouse is lying on its back, and the back paws and an area on the abdomen were first shaved because the hairs on the skin impair detection of the signal. A clear signal could be detected in the back and front paws and in the tail. The signal in the shaved area on the abdomen is likely from abdominal muscle.

Row | Substance | uptake of FAM-labeled peptide into muscle fibers [1] | uptake of FAM-labeled peptide into myofibers of the injected muscle [2] | uptake of FAM-labeled peptide into cultured myotubes [3] | distribution of Cy5-labeled peptide [4]
1 | LGAQSNF | taken up into a large area of muscle fibers and were still visible after 3 days | significant area of uptake | – | –
2 | QLFTSAS (also: FAM label) | taken up into a large area of muscle fibers and were still visible after 3 days | significant area of uptake | significant uptake | –
3 | Cy5-labeled peptide LGAQSNF: Peptide LGAQSNF synthesized with the fluorescent label Cy5 (also: Cy5 label) | – | – | – | taken up by the abdominal muscle and by muscles in the hindlegs, paws and tail
4 | SPNSIGT (also: FAM label) [7-mer peptide from in vitro phage selection on myotubes; tested with FAM label] | – | – | significant uptake | –
5 | LYQDYSL | taken up into a large area of muscle fibers and were still visible after 3 days | – | – | –
